Several values for one entry are separate records, joined by “and”; a condition that tells them apart may be missing. Identical values can stand only once.
Experiments:
[1] = biological target: cyclooxygenase-2; set-up: method as in PMID 15044055; details: intact cell assays; cited from earlier work
[2] = biological target: cyclooxygenase-1; set-up: method as in PMID 15044055; details: intact cell assays; cited from earlier work
[3] = system: carrageenan-induced rat paw edema; experiment: carrageenan-induced rat paw edema test; type: in vivo; set-up: Mean increase in edema weight ± SEM: unit not given here; details: rats, 10 mg/kg intraperitoneally, 4 h after carrageenan; for inhibition in vivo at 10 mg/kg / change in vivo at 10 mg/kg: Rattus norvegicus, ip; for inhibition in vivo at 10 mg/kg: 4 h, read-out: %Inhibition of Paw edema from control group (edema reduction); for change in vivo at 10 mg/kg / Mean increase in edema weight ± SEM: N = 6; for change in vivo at 10 mg/kg: read-out: Mean % increase in edema weight ± SEM; for % Activity relative to indomethacine: indomethacin = 100
Method: The in vivo anti-inflammatory effects of the newly synthesized pyrazolopyrimidine derivatives were assessed by utilizing the functional model of carrageenan-induced rat paw edema using indomethacin as the reference drug. Mean changes and the percent increase in paw edema weight of animals pretreated with the tested compounds after 4 h from the induction of inflammation were measured, together with the percent inhibition of induced rat paw edema by the tested compounds. The anti-inflammatory activity (relative potency) of the tested compounds relative to that of indomethacin was also calculated (Table 1) (Fig. 2).
The in vivo carrageenan-induced rat paw edema model of inflammation was used to evaluate the anti-inflammatory properties of the newly synthesized compounds according to the previously reported Winter et al. method.
Adult male albino rats weighing 100–120 g (obtained from the animal house of the department of Physiology, Faculty of Medicine, Alexandria University) were used throughout the work. Animals were randomly divided into groups of six rats each. They were kept in an animal house under standard conditions of light and temperature with free access to food and water ad libitum and allowed to be accustomed to their environment for two days before testing.
Indomethacin, used as a reference standard (Khahira for Pharmaceutical and Chemical Industry, Cairo, Egypt), and the test compounds were dissolved in DMSO and were injected intraperitoneally at a dose level of 10 mg/kg body weight. Control animals, on the other hand, were intraperitoneally injected with appropriate volume of DMSO only. After one hour of the above treatment, an inflammatory edema in the right hind paw of all animals was induced by subcutaneous injection of 0.05 ml of freshly prepared solution of 1% carrageenan (λ-Carrageenan Sigma–Aldrich Corp. St. Louis, MO, USA) in sterile normal saline (0.9%), into the subplantar tissue of the paw. An equal volume of saline was injected to the left hind paw and served as internal control for the degree of inflammation in the right hind paw.
Four hours after carrageenan injection, animals were decapitated and both the right and left hind paws were excised at a standard point and weighed. The difference in weight from edema between right and left paws was taken as a measure of the degree of inflammation for each animal. The mean increase in weight of the carrageenan-injected paw over the other paw in each group was measured and the percent increase of edema was calculated. The anti-inflammatory efficacy of the tested compounds was assessed by comparing the change in paw weight in the treated animals with that in control animals (treated with DMSO only) and expressed as a percent inhibition of the edema (percent protection against inflammation), calculated according to the following equation: % Inhibition of edema=(1-Wt/Wc)×100 where Wt is the mean increase in paw weight in rats treated with the test compounds and Wc is the mean increase in paw weight in the control group. The anti-inflammatory activity of the test compounds relative to that of indomethacin was also determined (Table 2).
In the anti-inflammatory study, data obtained were expressed as the mean ± standard error (SEM). Statistical significance was determined by comparing the values of the test compounds and the standard with those obtained from the control group of animals using One-way ANOVA with Dunnett’s post-test using the GraphPad Prism version 3.00 for Windows (GraphPad Software, San Diego California USA, www.graphpad.com). The difference in results was considered significant if P < 0.001.

[4] = system: gastric mucosa of rats; experiment: gastric ulcerogenic effect (Meshali's method, ulcer index by Robert's method); type: in vivo, rat; set-up: key to Ulcer index: ulcer index = %incidence/10 + avg no. of ulcers + avg severity (0–4); details: for % ulceration in the population of test animals: oral 10 mg/kg; for Average No. of ulcer / % Incidence/10 / % Ulcerogenicity relative to indomethacin / Average severity / Ulcer index: oral 10 mg/kg on three days; for % Incidence/10: 5 animals per group; for % Ulcerogenicity relative to indomethacin: indomethacin = 100, 10 mg/kg; for Average severity: score 0 to 4; for Ulcer index: sum of the 3 figures
Method: The ulcer index was calculated according to Robert’s method.
Adult male albino rats weighing between 100 and 120 g were used. Animals were divided into groups of five animals each. Rats were fasted 20 h before drug administration. Water was given ad libitum. The control group received the vehicle (1% gum acacia) orally. Other groups received indomethacin or test compounds orally in a dose of 10 mg/kg body weight suspended in 1% gum acacia. Rats were fasted for 2 h, allowed to feed for 2 h, then fasted for another 20 h. Rats were given another two doses on the second and third days. On the fourth day, rats were sacrificed by diethyl ether; the stomach of each rat was removed, opened along the greater curvature, and rinsed with cold 0.9% saline. The stomach was stretched, by pins, on a corkboard and inspected with a 3x magnifying lens for any evidence of mucosal damage. The ulcer index was calculated according to Robert’s method. The number of mucosal damage (red spots) was counted and their severity (ulcerogenic severity) was graded from 0 to 4 according to the following score assignment:
The following figures were calculated: • –– % Incidence/10 = [number of rats showing ulcer of any grade divided by total number of rats in the group × 100]/10. • –– Average number of ulcers: number of ulcers in the group/total number of rats in the group. • –– Average severity: Σ [each ulcer multiplied by its score of severity]/number of ulcers in the group. • Ulcer index = the sum of the 3 figures. • Results are tabulated in Table 2.

Row | SMILES | IC50 [1] | IC50 [2] | inhibition in vivo at 10 mg/kg [3] | change in vivo at 10 mg/kg [3] | Mean increase in edema weight ± SEM [3] | % Activity relative to indomethacine [3] | % ulceration in the population of test animals [4] | Average No. of ulcer [4] | % Incidence/10 [4] | % Ulcerogenicity relative to indomethacin [4] | Average severity [4] | Ulcer index [4] | melting point
1 | CN(C)c1nc(NCc2ccccc2)c2cnn(C(C)(C)C)c2n1 [II] | 0.9 nM | 59.6 nM | – | – | – | – | – | – | – | – | – | – | –
2 | Cc1nc2c(cnn2-c2ccccc2)c(=O)n1N=c1scc(-c2ccccc2)n1-c1ccc(Cl)cc1 [Compound 11d, 5-{[3-(4-Chlorophenyl)-4-phenyl-1,3-thiazol-2(3H)-ylidene]amino}-6-methyl-1-phenyl-1,5-dihydro-4H-pyrazolo[3,4-d]pyrimidin-4-one] | – | – | 56.7% | 8.73 ± 0.868% | 0.68 ± 0.065 | 83.18% | 80% | 1.0 | 8 | 59.09% | 1.20 | 10.20 | 267 to 269 °C
3 | Cc1nc2c(cnn2-c2ccccc2)c(=O)n1N=c1scc(-c2ccc(Br)cc2)n1-c1ccc(Cl)cc1 [Compound 11e, 5-{[4-(4-Bromophenyl)-3-(4-chlorophenyl)-1,3-thiazol-2(3H)-ylidene]amino}-6-methyl-1-phenyl-1,5-dihydro-4H-pyrazolo[3,4-d]pyrimidin-4-one] | – | – | 66.9% | 8.74 ± 0.929% | 0.52 ± 0.031 | 98.14% | 20% | 0.8 | 2 | 26% and 26.36% | 1.75 | 4.55 | 261 to 263 °C
4 | Cc1nc2c(cnn2-c2ccccc2)c(=O)n1N=c1scc(-c2ccccc2)n1-c1ccccc1 [Compound 11a, 5-[(3,4-Diphenyl-1,3-thiazol-2(3H)-ylidene)amino]-6-methyl-1-phenyl-1,5-dihydro-4H-pyrazolo[3,4-d]pyrimidin-4-one] | – | – | 53.5% | 10.5 ± 0.468% | 0.73 ± 0.021 | 78.50% | 40–60% | 1.6 | 6 | 52.02% | 1.38 | 8.98 | 258 to 260 °C
5 | Cc1nc2c(cnn2-c2ccccc2)c(=O)n1N=c1scc(-c2ccc(Cl)cc2)n1-c1ccccc1 [Compound 11c, 5-{[4-(4-Chlorophenyl)-3-phenyl-1,3-thiazol-2(3H)-ylidene]amino}-6-methyl-1-phenyl-1,5-dihydro-4H-pyrazolo[3,4-d]pyrimidin-4-one] | – | – | 54.1% | 10.8 ± 0.457% | 0.72 ± 0.031 | 79.44% | 40–60% | 1.6 | 6 | 53.47% | 1.63 | 9.23 | 258 to 259 °C

Source: paper PMC3700072, “Synthesis, Anti-Inflammatory, and Ulcerogenicity Studies of Novel Substituted and Fused Pyrazolo[3,4-d]pyrimidin-4-ones” (Scientia Pharmaceutica, 2013)
